Patent publication US10239883B2, “4-imidazopyridazin-1-yl-benzamides as BTK inhibitors” (Merck Sharp & Dohme B.V., priority 2011, dated 2019)

biological target: Btk enzyme (His-Btk) (Homo sapiens (Human), UniProt Q06187); assay: Btk enzyme activity, IMAP fluorescence polarization assay; details: 60 min pre-incubation, 5 μM ATP, bin bound in nM
Sequence (Q06187 whole entry): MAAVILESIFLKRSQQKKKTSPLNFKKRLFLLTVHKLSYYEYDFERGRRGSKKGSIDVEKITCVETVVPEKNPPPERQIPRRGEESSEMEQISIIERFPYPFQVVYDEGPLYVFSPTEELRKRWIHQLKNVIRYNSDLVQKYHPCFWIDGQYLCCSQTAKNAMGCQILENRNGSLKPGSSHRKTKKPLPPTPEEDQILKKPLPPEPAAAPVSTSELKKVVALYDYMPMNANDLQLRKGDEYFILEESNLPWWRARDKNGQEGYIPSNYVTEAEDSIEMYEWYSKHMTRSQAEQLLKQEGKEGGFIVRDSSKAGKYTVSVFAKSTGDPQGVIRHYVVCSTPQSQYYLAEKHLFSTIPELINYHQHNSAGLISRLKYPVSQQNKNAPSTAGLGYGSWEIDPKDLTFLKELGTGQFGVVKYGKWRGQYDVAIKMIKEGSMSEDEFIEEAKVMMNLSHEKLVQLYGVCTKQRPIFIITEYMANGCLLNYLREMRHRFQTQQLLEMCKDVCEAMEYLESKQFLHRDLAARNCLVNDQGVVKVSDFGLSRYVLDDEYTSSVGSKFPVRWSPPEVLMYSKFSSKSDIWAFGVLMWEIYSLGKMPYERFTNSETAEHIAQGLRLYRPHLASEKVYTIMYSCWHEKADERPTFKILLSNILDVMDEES

| SMILES | EC50 Btk activity values [nM] |
| --- | --- |
| Nc1nccn2c([C@@H]3CCCN3C(=O)/C=C/CN3CCCC3)nc(-c3ccc(C(=O)Nc4ccccn4)cc3)c12 [Example 2, (S,E)-4-(8-amino-3-(1-(4-(pyrrolidin-1-yl)but-2-enoyl)pyrrolidin-2-yl)imidazo[1,5-a]pyrazin-1-yl)-N-(pyridin-2-yl)benzamide] | <100 |
| COC/C=C/C(=O)N1CCC[C@H]1c1nc(-c2ccc(C(=O)Nc3ccccn3)cc2)c2c(N)nccn12 [Example 4, (S,E)-4-(8-amino-3-(1-(4-methoxybut-2-enoyl)pyrrolidin-2-yl)imidazo[1,5-a]pyrazin-1-yl)-N-(pyridin-2-yl)benzamide] | <100 |
| Nc1nccn2c([C@@H]3CCCN3C(=O)c3ccnc(Cl)n3)nc(-c3ccc(C(=O)Nc4ccccn4)cc3)c12 [Example 5, (S)-4-(8-amino-3-(1-(2-chloropyrimidine-4-carbonyl)pyrrolidin-2-yl)imidazo[1,5-a]pyrazin-1-yl)-N-(pyridin-2-yl)benzamide] | <100 |
| CN(C)C/C=C/C(=O)N1CCC[C@H]1c1nc(-c2ccc(C(=O)Nc3cc(F)ccn3)cc2)c2c(N)nccn12 [Example 7, (S,E)-4-(8-Amino-3-(1-(4-(dimethylamino)but-2-enoyl)pyrrolidin-2-yl)imidazo[1,5-a]pyrazin-1-yl)-N-(4-fluoropyridin-2-yl)benzamide] | <100 |
| CCc1ccnc(NC(=O)c2ccc(-c3nc([C@@H]4CCCN4C(=O)/C=C/COC)n4ccnc(N)c34)cc2)c1 [Example 11, (S,E)-4-(8-Amino-3-(1-(4-methoxybut-2-enoyl)pyrrolidin-2-yl)imidazo[1,5-a]pyrazin-1-yl)-N-(4-ethylpyridin-2-yl)benzamide] | <100 |
| CC#CC(=O)N1CCCC[C@H]1c1nc(-c2ccc(C(=O)Nc3ccon3)cc2)c2c(N)nccn12 [Example 24, (S)-4-(8-Amino-3-(1-but-2-ynoylpiperidin-2-yl)imidazo[1,5-a]pyrazin-1-yl)-N-(isoxazol-3-yl)benzamide] | <100 |
| CN(C)CC#CC(=O)N1CCC[C@H]1c1nc(-c2ccc(C(=O)Nc3ccccn3)cc2)c2c(N)nccn12 [Example 40, (S)-4-(8-Amino-3-(1-(4-(dimethylamino)but-2-ynoyl)pyrrolidin-2-yl)imidazo[1,5-a]pyrazin-1-yl)-N-(pyridin-2-yl)benzamide] | <100 |
| COCC#CC(=O)N1CCC[C@H]1c1nc(-c2ccc(C(=O)Nc3ccccn3)cc2)c2c(N)nccn12 [Example 41, (S)-4-(8-Amino-3-(1-(4-methoxybut-2-ynoyl)pyrrolidin-2-yl)imidazo[1,5-a]pyrazin-1-yl)-N-(pyridin-2-yl)benzamide] | <100 |
| CC#CC(=O)N1CCC[C@H]1c1nc(-c2ccc(C(=O)Nc3ccccn3)c(F)c2)c2c(N)nccn12 [Example 50, (S)-4-(8-amino-3-(1-but-2-ynoylpyrrolidin-2-yl)imidazo[1,5-a]pyrazin-1-yl)-2-fluoro-N-(pyridin-2-yl)benzamide] | <100 |
| COC/C=C/C(=O)N1CCC[C@H]1c1nc(-c2ccc(C(=O)Nc3cc(OC)ccn3)cc2)c2c(N)nccn12 [Example 51, (S,E)-4-(8-amino-3-(1-(4-methoxybut-2-enoyl)pyrrolidin-2-yl)imidazo[1,5-a]pyrazin-1-yl)-N-(4-methoxypyridin-2-yl)benzamide] | <100 |
| Cc1cc(C(=O)Nc2ccccn2)ccc1-c1nc([C@@H]2CCCCN2C(=O)c2ccnc(Cl)n2)n2ccnc(N)c12 [Example 56, 4-(8-amino-3-((S)-1-(2-chloropyrimidine-4-carbonyl)piperidin-2-yl)imidazo[1,5-a]pyrazin-1-yl)-3-methyl-N-(pyridin-2-yl)benzamide] | <100 |
| COC/C=C/C(=O)N1CCC[C@H]1c1nc(-c2ccc(C(=O)Nc3cc(C)ccn3)cc2)c2c(N)nccn12 [Example 57, (S,E)-4-(8-amino-3-(1-(4-methoxybut-2-enoyl)pyrrolidin-2-yl)imidazo[1,5-a]pyrazin-1-yl)-N-(4-methylpyridin-2-yl)benzamide] | <100 |
| COC/C=C/C(=O)N1CCC[C@H]1c1nc(-c2ccc(C(=O)Nc3cc(C(C)C)ccn3)cc2)c2c(N)nccn12 [Example 58, (S,E)-4-(8-amino-3-(1-(4-methoxybut-2-enoyl)pyrrolidin-2-yl)imidazo[1,5-a]pyrazin-1-yl)-N-(4-isopropylpyridin-2-yl)benzamide] | <100 |
| Cc1ccnc(NC(=O)c2ccc(-c3nc([C@@H]4CCCN4C(=O)/C=C/CN(C)C)n4ccnc(N)c34)cc2)c1 [Example 59, (S,E)-4-(8-amino-3-(1-(4-(dimethylamino)but-2-enoyl)pyrrolidin-2-yl)imidazo[1,5-a]pyrazin-1-yl)-N-(4-methylpyridin-2-yl)benzamide] | <100 |
| CN(C)C/C=C/C(=O)NCc1nc(-c2ccc(C(=O)Nc3ccccn3)cc2)c2c(N)nccn12 [Example 69, (E)-4-(8-amino-3-((4-(dimethylamino)but-2-enamido)methyl)imidazo[1,5-a]pyrazin-1-yl)-N-(pyridin-2-yl)benzamide] | <100 |
| CC(C)c1ccnc(NC(=O)c2ccc(-c3nc([C@@H]4CCCN4C(=O)c4ccnc(Cl)n4)n4ccnc(N)c34)cc2)c1 [Example 70, (S)-4-(8-amino-3-(1-(2-chloropyrimidine-4-carbonyl)pyrrolidin-2-yl)imidazo[1,5-a]pyrazin-1-yl)-N-(4-isopropylpyridin-2-yl)benzamide] | <100 |
| Nc1nccn2c([C@@H]3CCCN3C(=O)c3ccnc(Cl)n3)nc(-c3ccc(C(=O)Nc4nc5c(s4)CCCC5)cc3)c12 [Example 71, (S)-4-(8-amino-3-(1-(2-chloropyrimidine-4-carbonyl)pyrrolidin-2-yl)imidazo[1,5-a]pyrazin-1-yl)-N-(4,5,6,7-tetrahydrobenzo[d]thiazol-2-yl)benzamide] | <100 |
| CN(C)C/C=C/C(=O)N1CCCC[C@H]1c1nc(-c2ccc(C(=O)Nc3cccnn3)cc2)c2c(N)nccn12 [Example 73, (S,E)-4-(8-amino-3-(1-(4-(dimethylamino)but-2-enoyl)piperidin-2-yl)imidazo[1,5-a]pyrazin-1-yl)-N-(pyridazin-3-yl)benzamide] | <100 |
| Nc1nccn2c([C@@H]3CCCCN3C(=O)c3ccnc(Cl)n3)nc(-c3ccc(C(=O)Nc4cc(F)ccn4)cc3)c12 [Example 80, (S)-4-(8-amino-3-(1-(2-chloropyrimidine-4-carbonyl)piperidin-2-yl)imidazo[1,5-a]pyrazin-1-yl)-N-(4-fluoropyridin-2-yl)benzamide] | <100 |
| COC/C=C/C(=O)N1CCCC[C@H]1c1nc(-c2ccc(C(=O)Nc3cc(F)ccn3)cc2)c2c(N)nccn12 [Example 81, (S,E)-4-(8-amino-3-(1-(4-methoxybut-2-enoyl)piperidin-2-yl)imidazo[1,5-a]pyrazin-1-yl)-N-(4-fluoropyridin-2-yl)benzamide] | <100 |
| COC/C=C/C(=O)N1CCC[C@H]1c1nc(-c2ccc(C(=O)Nc3nc4c(s3)CCCC4)cc2)c2c(N)nccn12 [Example 82, (S,E)-4-(8-amino-3-(1-(4-methoxybut-2-enoyl)pyrrolidin-2-yl)imidazo[1,5-a]pyrazin-1-yl)-N-(4,5,6,7-tetrahydrobenzo[d]thiazol-2-yl)benzamide] | <100 |

same assay, conditions: 60 min pre-incubation, 5 μM ATP, bin bound in μM

| SMILES | EC50 Btk activity values [nM] |
| --- | --- |
| COC/C=C/C(=O)N1CCC[C@H]1c1nc(-c2ccc(C(=O)Nc3ccccn3)c(F)c2)c2c(N)nccn12 [Example 52] | <1000 |
| COC/C=C/C(=O)N1CCC[C@H]1c1nc(-c2ccc(C(=O)Nc3cc(F)ccn3)cc2)c2c(N)nccn12 [Example 53, (S,E)-4-(8-amino-3-(1-(4-methoxybut-2-enoyl)pyrrolidin-2-yl)imidazo[1,5-a]pyrazin-1-yl)-N-(4-fluoropyridin-2-yl)benzamide] | <1000 |
| COC/C=C/C(=O)N1CCCC[C@H]1c1nc(-c2ccc(C(=O)Nc3ccon3)cc2)c2c(N)nccn12 [Example 54, (S,E)-4-(8-amino-3-(1-(4-methoxybut-2-enoyl)piperidin-2-yl)imidazo[1,5-a]pyrazin-1-yl)-N-(isoxazol-3-yl)benzamide] | <1000 |
| COC/C=C/C(=O)N1CCCC[C@H]1c1nc(-c2ccc(C(=O)Nc3ncccn3)cc2)c2c(N)nccn12 [Example 55, (S,E)-4-(8-amino-3-(1-(4-methoxybut-2-enoyl)piperidin-2-yl)imidazo[1,5-a]pyrazin-1-yl)-N-(pyrimidin-2-yl)benzamide] | <1000 |
| C=CC(=O)N1CCCC[C@H]1c1nc(-c2ccc(C(=O)Nc3ccccn3)cc2C)c2c(N)nccn12 [Example 68, 4-(3-((S)-1-acryloylpiperidin-2-yl)-8-aminoimidazo[1,5-a]pyrazin-1-yl)-3-methyl-N-(pyridin-2-yl)benzamide] | <1000 |
| COC/C=C/C(=O)N1CCCC[C@H]1c1nc(-c2ccc(C(=O)Nc3cccnn3)cc2)c2c(N)nccn12 [Example 72, (S,E)-4-(8-amino-3-(1-(4-methoxybut-2-enoyl)piperidin-2-yl)imidazo[1,5-a]pyrazin-1-yl)-N-(pyridazin-3-yl)benzamide] | <1000 |
| Nc1nccn2c([C@@H]3CCCCN3C(=O)c3ccnc(Cl)n3)nc(-c3ccc(C(=O)Nc4cccnn4)cc3)c12 [Example 74, (S)-4-(8-amino-3-(1-(2-chloropyrimidine-4-carbonyl)piperidin-2-yl)imidazo[1,5-a]pyrazin-1-yl)-N-(pyridazin-3-yl)benzamide] | <1000 |
